In ChEMBL document CHEMBL1147719, “Two novel aromatic valerenane-type sesquiterpenes from the Chinese green alga Caulerpa taxifolia” (Bioorg Med Chem Lett, 2006) one finds IC50 data, which are given here for 1 molecule.

This experiment concerns the target T1, Tyrosine-protein phosphatase non-receptor type 1 (Homo sapiens, UniProt P18031).
T1 sequence (P18031 whole entry): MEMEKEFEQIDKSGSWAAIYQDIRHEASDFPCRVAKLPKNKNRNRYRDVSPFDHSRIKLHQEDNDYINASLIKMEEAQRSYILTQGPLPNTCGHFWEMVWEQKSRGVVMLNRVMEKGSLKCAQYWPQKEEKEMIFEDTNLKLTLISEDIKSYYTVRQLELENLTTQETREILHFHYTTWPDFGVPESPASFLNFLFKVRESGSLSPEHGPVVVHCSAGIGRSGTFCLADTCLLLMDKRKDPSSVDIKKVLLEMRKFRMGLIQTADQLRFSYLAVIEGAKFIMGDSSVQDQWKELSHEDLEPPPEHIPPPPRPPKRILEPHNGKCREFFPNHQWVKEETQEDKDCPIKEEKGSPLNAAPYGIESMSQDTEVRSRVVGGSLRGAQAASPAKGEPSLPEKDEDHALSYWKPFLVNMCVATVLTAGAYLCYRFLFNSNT
In words: Inhibition of human PTP1B.

Take `COC(=O)/C1=C/c2c([nH]c3ccccc23)/C(C(=O)OC)=C\c2c1[nH]c1ccccc21` [CAULERPIN]: it took 3.77 µM to reach half-maximal inhibition (IC50).
